This assay addresses T1, recombinant human sweet receptor (Homo sapiens, UniProt Q7RTX0+Q8TE23).
T1 construct: expressed in transfected cells
T1 sequence (Q8TE23 20-839): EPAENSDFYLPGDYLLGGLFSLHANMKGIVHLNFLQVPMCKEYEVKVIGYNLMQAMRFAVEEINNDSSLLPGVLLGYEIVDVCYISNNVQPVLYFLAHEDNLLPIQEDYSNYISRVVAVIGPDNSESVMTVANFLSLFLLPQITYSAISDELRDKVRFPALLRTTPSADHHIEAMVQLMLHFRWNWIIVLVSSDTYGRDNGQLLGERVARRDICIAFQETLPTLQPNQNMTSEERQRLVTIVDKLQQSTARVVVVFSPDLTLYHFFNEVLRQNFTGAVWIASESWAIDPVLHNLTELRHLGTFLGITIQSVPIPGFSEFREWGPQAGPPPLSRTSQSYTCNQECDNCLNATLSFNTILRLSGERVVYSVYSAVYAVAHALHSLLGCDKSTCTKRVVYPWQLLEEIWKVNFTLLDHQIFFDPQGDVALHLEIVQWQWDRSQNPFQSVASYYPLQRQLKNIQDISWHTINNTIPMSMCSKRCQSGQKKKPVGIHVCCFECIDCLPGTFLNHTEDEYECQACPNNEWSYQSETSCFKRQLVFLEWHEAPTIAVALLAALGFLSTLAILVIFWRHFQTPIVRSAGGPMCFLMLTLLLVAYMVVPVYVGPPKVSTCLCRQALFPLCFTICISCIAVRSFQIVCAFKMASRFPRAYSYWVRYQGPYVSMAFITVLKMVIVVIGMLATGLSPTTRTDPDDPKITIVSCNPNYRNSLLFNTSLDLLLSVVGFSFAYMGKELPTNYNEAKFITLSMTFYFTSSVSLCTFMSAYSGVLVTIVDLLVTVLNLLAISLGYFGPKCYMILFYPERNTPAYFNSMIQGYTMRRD
T1 sequence (Q7RTX0 21-852): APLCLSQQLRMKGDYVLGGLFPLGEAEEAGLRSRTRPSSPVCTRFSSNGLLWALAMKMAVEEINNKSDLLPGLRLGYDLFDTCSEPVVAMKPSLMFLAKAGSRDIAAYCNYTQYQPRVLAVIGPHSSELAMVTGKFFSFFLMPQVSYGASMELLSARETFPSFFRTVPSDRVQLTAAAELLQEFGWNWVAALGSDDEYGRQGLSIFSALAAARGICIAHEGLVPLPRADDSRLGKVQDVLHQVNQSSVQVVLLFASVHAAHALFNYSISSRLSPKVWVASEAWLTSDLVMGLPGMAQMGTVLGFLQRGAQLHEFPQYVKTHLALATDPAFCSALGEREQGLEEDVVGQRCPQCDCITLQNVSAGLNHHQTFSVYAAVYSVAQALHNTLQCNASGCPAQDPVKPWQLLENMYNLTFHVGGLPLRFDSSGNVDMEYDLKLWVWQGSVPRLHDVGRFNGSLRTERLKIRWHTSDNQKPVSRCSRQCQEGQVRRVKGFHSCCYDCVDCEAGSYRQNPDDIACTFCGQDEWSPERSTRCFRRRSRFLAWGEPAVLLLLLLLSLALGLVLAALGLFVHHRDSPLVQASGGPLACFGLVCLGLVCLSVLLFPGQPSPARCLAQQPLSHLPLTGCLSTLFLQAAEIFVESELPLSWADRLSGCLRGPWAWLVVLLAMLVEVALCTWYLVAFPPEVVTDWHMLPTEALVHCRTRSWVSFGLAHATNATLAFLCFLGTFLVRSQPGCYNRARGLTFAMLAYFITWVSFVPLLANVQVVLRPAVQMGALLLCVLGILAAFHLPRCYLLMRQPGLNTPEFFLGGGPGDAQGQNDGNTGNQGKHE
The assay can be described thus: Sweet receptor assay, calcium imaging (Fluo-4 AM) in cells stably expressing the receptor and chimeric G-protein G16g25. The assay is classed as cell-based. The method, then: Cells stably expressing the recombinant human sweet receptor and the chimeric G-protein G16g25 were dispensed in a 384-well clear bottom plate (Fisher) and incubated overnight at 37° C. and 6% CO2. On the day of the experiment, cells were loaded with 4 μM of the calcium indicator Fluo-4 AM (Invitrogen) in D-PBS for 1 hour at room temperature and excess dye washed away with D-PBS, leaving a residual volume of 25 μL/well. After 30 minutes of rest time the cell plate and the compound plate were transferred into a fluorometric imaging plate reader (Molecular Devices). To determine potency, compound plates were prepared with serial dilutions of compound at 2× the final assay concentration in D-PBS. Imaging and data analysis was performed according to the procedures set forth in Servant et al., PROC. NAT'L ACAD. SCI. USA, vol. 107(10), pp. 4746-51 (2010).

In the case of `C[C@H](CC[C@@H](O[C@@H]1O[C@H](CO[C@H]2O[C@H](CO)[C@@H](O)[C@H](O)[C@H]2O)[C@@H](O)[C@H](O)[C@H]1O[C@@H]1O[C@H](CO)[C@@H](O)[C@H](O)[C@H]1O)C(C)(C)O)[C@H]1CC[C@@]2(C)C3CC=C4[C@@H](CC[C@H](O[C@@H]5O[C@H](CO)[C@@H](O[C@@H]6O[C@H](CO)[C@@H](O)[C@H](O)[C@H]6O)[C@H](O)[C@H]5O)C4(C)C)[C@]3(C)[C@H](O)C[C@]12C` (some centres unmarked) [MC1], the EC50 (Fluo-4 AM calcium signal, fluorometric imaging plate reader, read-out: EC50 of the dose-response curve in the sweet taste assays) amounted to 8 µM. The “dose-response effect in the sweet taste assays” value (serial dilutions of compound) was “showed a dose-response effect indicative of its utility as a sweetener”.

For the origin of these results see patent publication US20240225066A1, “MOGROSIDE COMPOUNDS AND THEIR COMESTIBLE USE” (Firmenich Incorporated, priority 2021, published 2024).
